“Also recorded” adds a separate entry of the source.
Legend:
Type in all cases: cell-based, human
peptide-pulsed C1R-A11 = assay: IFN-gamma ELISA of CTL lines and CTL clones (HLA-A*1101); conditions: CTL lines, peptide-pulsed vs non-pulsed target cells, HLA-A*1101
Procedure: (§1) CTLs were propagated in culture using methods similar to those disclosed by Riddell et al. (Walter E A et al., N Engl J Med 1995, 333(16): 1038-44; Riddell S R et al., Nat Med 1996, 2(2): 216-23). The CTLs were co-cultured in a total of 25 ml AIM-V medium containing 5% AS (AIM-V/5% AS) and 40 ng/ml anti-CD3 antibody with two types of Mitomycin C-treated human B lymphoblastoid cell lines at 5×10^6 cells/flask. One day after beginning of the culturing, 120 IU/ml IL-2 was added to the culture. On days 5, 8 and 11, a fresh AIM-V/5% AS medium containing 30 IU/ml IL-2 was added to the culture (Tanaka H et al., Br J Cancer 2001, 84(1): 94-9; Umano Y et al., Br J Cancer 2001, 84(8): 1052-7; Uchida N et al., Clin Cancer Res 2004, 10(24): 8577-86; Suda T et al., Cancer Sci 2006, 97(5): 411-9; Watanabe T et al., Cancer Sci 2005, 96(8): 498-506).
(§2) Dilution of CTLs was carried out to make 0.3, 1 and 3 cells/well in 96 round-bottomed microtiter plates (Nalge Nunc International). The CTLs were co-cultured with two types of Mitomycin C-treated human B lymphoblastoid cell lines at 1×10^4 cells/well in a total of 150 micro-l/well AIM-V/5% AS medium with 30 ng/ml anti-CD3 antibody and 125 IU/ml IL-2. Ten days later, IL-2 was added to the medium at 50 micro-l/well to reach a final concentration of 125 IU/ml. On day 14, the CTL activity was tested, and the CTL clones were propagated using the same method as described above (Uchida N et al., Clin Cancer Res 2004, 10(24): 8577-86; Suda T et al., Cancer Sci 2006, 97(5): 411-9; Watanabe T et al., Cancer Sci 2005, 96(8): 498-506).
(§3) Specifically, peptide-pulsed C1R-A11 (1×10^4 cells/well) was prepared as the stimulator cell. The induced CTLs, i.e., CTL lines and CTL clones, were used as the responder cell. The IFN-gamma ELISPOT assay and IFN-gamma ELISA were performed according to the manufacturer's manual.

[1] = test system: peptide-pulsed C1R-A11 cells; assay: IFN-gamma ELISPOT assay of peptide-induced CTLs (HLA-A*1101); conditions: CTLs induced from HLA-A*1101-positive donors, peptide-pulsed C1R-A11 vs control
Excerpt: (§4) Monocyte-derived dendritic cells (DCs) were used as the antigen-presenting cell to induce a cytotoxic T lymphocyte (CTL) response against peptides presented on human leukocyte antigens (HLAs). As described in the other sections, DCs were generated in vitro (Nakahara S et al., Cancer Res 2003, 63(14): 4112-8). Specifically, peripheral-blood mononuclear cells isolated from healthy volunteers (HLA-A*1101-positive) with the Ficoll-Paque plus solution (Pharmacia) were separated by attaching to plastic tissue culture dishes (Becton Dickinson) and concentrated as a monocyte fraction. The monocyte-concentrated population was cultured in the presence of 1000 IU/ml granulocyte macrophage colony-stimulating factor (R&D System) and 1000 IU/ml interleukin(IL)-4 (R&D System) in an AIM-V medium (Invitrogen) containing 2% heat-inactivated autologous serum (AS). After seven days of culturing, the cytokine-induced DCs were pulsed with 20 micro-g/ml each of the synthesized peptides in an AIM-V medium at 37 degrees C. for three hours in the presence of 3 micro-g/ml beta 2-microglobulin. The generated cells appeared to express on their cell surface DC-associated molecules such as CD80, CD83, CD86 and HLA class II (data not shown). Next, these peptide-pulsed DCs were inactivated by X-ray irradiation (20 Gy), and mixed in a 1:20 ratio with autologous CD8^+ T cells obtained by positive selection using the CD8 Positive Isolation Kit (Dynal). These culture products were seeded in a 48-well plate (Corning). Each well was made to contain 1.5×10^4 peptide-pulsed DCs, 3×10^5 CD8^+ T cells and 10 ng/ml IL-7 (R&D System) in 0.5 ml of the AIM-V/2% AS medium. Three days later, these culture products were added with a final concentration of 20 IU/ml IL-2 (CHIRON). On day 7 and day 14, T cells were further stimulated with peptide-pulsed autologous DCs. The DCs were prepared every time by the same method as above. On day 21, after the third peptide stimulation, CTLs were examined against the peptide-pulsed C1R-A11 cells by a human interferon (IFN)-gamma enzyme-linked immunospot (ELISPOT) assay (Tanaka H et al., Br J Cancer 2001, 84(1): 94-9; Umano Y et al., Br J Cancer 2001, 84(8): 1052-7; Uchida N et al., Clin Cancer Res 2004, 10(24): 8577-86; Suda T et al., Cancer Sci 2006, 97(5): 411-9; Watanabe T et al., Cancer Sci 2005, 96(8): 498-506).
as §3

[2] = test system: peptide-pulsed C1R-A33 cells; assay: IFN-gamma ELISPOT assay of peptide-induced CTLs (HLA-A*3303); conditions: CTLs induced from HLA-A*3303-positive donors, peptide-pulsed C1R-A33 vs control
Excerpt: as §4, with “(HLA-A*3303-positive)” for “(HLA-A*1101-positive)”, “CIR-A33 cell” for “C1R-A11 cells”
(§5) Specifically, peptide-pulsed C1R-A33 (1×10^4 cells/well) was prepared as the stimulator cell. The induced CTLs, i.e., CTL lines and CTL clones, were used as the responder cell. The IFN-gamma ELISPOT assay and IFN-gamma ELISA were performed according to the manufacturer's manual.

peptide-pulsed C1R-A33 = assay: IFN-gamma ELISA of CTL lines and CTL clones (HLA-A*3303)
Procedure: as §1, §2, §5

peptide-pulsed C1R-A03 [3] = assay: IFN-gamma ELISPOT assay of peptide-induced CTLs (HLA-A*0301); conditions: CTLs induced from HLA-A*0301-positive donors, peptide-pulsed C1R-A03 vs control
Excerpt: as §4, with “(HLA-A*0301-positive)” for “(HLA-A*1101-positive)”, “C1R-A03” for “C1R-A11 cells”
(§6) Specifically, peptide-pulsed C1R-A03 (1×10^4 cells/well) was prepared as the stimulator cell. The induced CTLs, i.e., CTL lines and CTL clones, were used as the responder cell. The IFN-gamma ELISPOT assay and IFN-gamma ELISA were performed according to the manufacturer's manual.

peptide-pulsed C1R-A03 [4] = assay: IFN-gamma ELISA of CTL lines and CTL clones (HLA-A*0301)
Procedure: as §1, §2, §6

Sequence: GIINFIHFR (a peptide derived from CDCA1) [SEQ ID NO: 3]
- IFN-gamma production of CTL lines (peptide-pulsed C1R-A11): potent IFN-gamma production
- peptide-specific CTL activity (IFN-gamma production) ([1]; listed as CDCA1-A11-9-123): potent IFN-gamma production; also recorded: significant specific CTL activity
- peptide-specific CTL activity (IFN-gamma production) [2]: potent IFN-gamma production
- IFN-gamma production of CTL clones (peptide-pulsed C1R-A33; CTL clones by limiting dilution, peptide-pulsed C1R-A33, listed as CDCA1-A33-9-123): Potent IFN-gamma production
- IFN-gamma production of CTL lines (peptide-pulsed C1R-A33; CTL lines, peptide-pulsed vs non-pulsed target cells, HLA-A*3303): potent IFN-gamma production

Sequence: KMKDTVQKLK (a peptide derived from CDCA1) [SEQ ID NO: 47]
- peptide-specific CTL activity (IFN-gamma production) (peptide-pulsed C1R-A03 [3]; listed as CDCA1-A03-10-257): potent IFN-gamma production; also recorded: significant specific CTL activity
- IFN-gamma production of CTL clones (peptide-pulsed C1R-A03 [4]; CTL clones by limiting dilution, peptide-pulsed C1R-A03, listed as CDCA1-A03-10-257): Potent IFN-gamma production
- IFN-gamma production of CTL lines (peptide-pulsed C1R-A03 [4]; CTL lines, peptide-pulsed vs non-pulsed target cells, HLA-A*0301): potent IFN-gamma production

Sequence: RLMIVKKEK (a peptide derived from CDCA1) [SEQ ID NO: 10]
- peptide-specific CTL activity (IFN-gamma production) (peptide-pulsed C1R-A03 [3]; listed as CDCA1-A03-9-343): no specific IFN-gamma production; also recorded: specific IFN-gamma production was not observed
- peptide-specific CTL activity (IFN-gamma production) ([1]; listed as CDCA1-A11-9-343): potent IFN-gamma production; also recorded: significant specific CTL activity

— patent US10676514B2, “CDCA1-derived peptide and vaccine containing same” (ONCOTHERAPY SCIENCE, INC., priority 2014, dated 2020)
